Experiments:
[1] = target: T1, Human PI3K beta (Homo sapiens, UniProt P42338); experiment: Human PI3K beta enzyme assay (HTRF); type: biochemical; conditions: read-out: PI3 Kbeta IC50
T1 construct: His (N); host or cells: SF9 insect cells (baculovirus)
Description: (§1) The catalytic subunits of PI3Ks are cloned into either pDEST8(p110 alpha) or pDEST10(p110beta, p110delta, and p110gamma) as N-terminal His tagged fusion proteins using the Gateway system (Invitrogen, catalog#11804-010 for pDEST8 and 11806-015 for pDEST10). The sequences are verified before recombinant protein expression using the Baculovirus Expression System with Gateway® Technology. The accession numbers for the subunits are as follows: • p110 alpha (GB:U79143) • p110beta (GB: S67334) • p110delta (GB: U86453) • p110gamma (GB: X83368) • The regulatory subunits of PI3Ks are cloned into pDEST8 as un-tagged protein using the Gateway system (Catalog#11804-010). The sequences are verified before recombinant protein expression using the Baculovirus Expression System with Gateway® Technology. The accession numbers for the subunits are as following: • p85 alpha (GB: BC030815) • p101(GB: AB028925) • VPS34 (accession number GB:BC033004) is cloned into pDEST20—Thombin as N-terminal GST tagged fusion proteins using the Gateway system (Invitrogen, catalog#11804-013). The sequences are verified before recombinant protein expression using the Baculovirus Expression System with Gateway® Technology.
(§2) For expression of the p110 complexes, the p85 (MOI of 4) is co-infected with p110 alpha, beta, and delta respectively (1MOI) in SF9 cells and harvested at 60 hours post co-infection. P110 gamma was infected at 1 MOI and harvested at 60 hours post infection.
(§3) For purification, PI3Ks are purified by Ni-NTA Agarose (Qiagen #30250) followed by Mono Q 10/100 GL (Ge Healthcare #17-5167-01). VPS34 is purified by Glutathione Sepharose 4 Fast Flow (GE Healthcare #17-5132-03) followed by HiTrap Q (GE Healthcare #17-1153-01).
(§4) 0.5 uL compounds in DMSO are added to wells of a 384 well microtitre plate (Corning 3575). At room temperature: 10 ul PI3K reaction buffer (50 mM Hepes, 5 mM DTT, 150 mM NaCl, 10 mM beta-glycerophosphate, 10 mM MgCl2, 0.25 mM sodium cholate and 0.001% CHAPS, pH 7.00) containing ATP (25 uM, Promega) is added followed immediately by 10 ul PI3K reaction buffer containing di-C8 P1(4,5)P2 (3.5 uM, CellSignals) and PI3Kalpha (0.4875 nM, Millennium Protein Sciences Group) and the mixture is incubated with shaking at room temperature for 30 minutes. Then 5 ul PI3K stop mix (50 mM Hepes, 5 mM DTT, 150 mM NaCl, 0.01% Tween-20, 15 mM EDTA and 25 nM biotin-PI(3,4,5)P3 (Echelon) is added to quench the reaction followed immediately by addition of 5 ul HTRF detection mix (50 mM Hepes, 5 mM DTT, 150 mM NaCl, 0.01% Tween-20, 40 mM KF, 1.0 nM GST:GRP-1 PH domain (Millennium Protein Sciences Group), 15 nM Streptavidin-XL (CisBio) and 0.375 nM anti-GST Eu++ antibody (CisBio) at pH 7.00). The plates are then incubated for 1 hour at room temperature with shaking and then read on a BMG PheraStar Plus reader.
2) Human PI3K beta, delta and gamma isoforms are tested using the procedure described for PI3K alpha above but with the following changes: PI3K beta (5.25 nM), PI3K delta (0.75 nM) and PI3K gamma (5 nM). All isoforms supplied by Millennium Protein Science Group.
(§5) For the assay methods described above, test compound percent inhibition, at various concentrations, is calculated relative to control (DMSO and EDTA) treated samples. Compound concentration versus percent inhibition curves are fitted to generate IC50 values. One skilled in the art will appreciate that the values generated either as percentage inhibition at a single concentration or IC50 values are subject to experimental variation.

[2] = target: T2, Human PI3K alpha (Homo sapiens, UniProt P42336); experiment: Human PI3K alpha enzyme assay (HTRF); type: biochemical; conditions: read-out: PI3Kalpha IC50
T2 construct: His (N); host or cells: SF9 insect cells (baculovirus)
T2 sequence (P42336 whole entry): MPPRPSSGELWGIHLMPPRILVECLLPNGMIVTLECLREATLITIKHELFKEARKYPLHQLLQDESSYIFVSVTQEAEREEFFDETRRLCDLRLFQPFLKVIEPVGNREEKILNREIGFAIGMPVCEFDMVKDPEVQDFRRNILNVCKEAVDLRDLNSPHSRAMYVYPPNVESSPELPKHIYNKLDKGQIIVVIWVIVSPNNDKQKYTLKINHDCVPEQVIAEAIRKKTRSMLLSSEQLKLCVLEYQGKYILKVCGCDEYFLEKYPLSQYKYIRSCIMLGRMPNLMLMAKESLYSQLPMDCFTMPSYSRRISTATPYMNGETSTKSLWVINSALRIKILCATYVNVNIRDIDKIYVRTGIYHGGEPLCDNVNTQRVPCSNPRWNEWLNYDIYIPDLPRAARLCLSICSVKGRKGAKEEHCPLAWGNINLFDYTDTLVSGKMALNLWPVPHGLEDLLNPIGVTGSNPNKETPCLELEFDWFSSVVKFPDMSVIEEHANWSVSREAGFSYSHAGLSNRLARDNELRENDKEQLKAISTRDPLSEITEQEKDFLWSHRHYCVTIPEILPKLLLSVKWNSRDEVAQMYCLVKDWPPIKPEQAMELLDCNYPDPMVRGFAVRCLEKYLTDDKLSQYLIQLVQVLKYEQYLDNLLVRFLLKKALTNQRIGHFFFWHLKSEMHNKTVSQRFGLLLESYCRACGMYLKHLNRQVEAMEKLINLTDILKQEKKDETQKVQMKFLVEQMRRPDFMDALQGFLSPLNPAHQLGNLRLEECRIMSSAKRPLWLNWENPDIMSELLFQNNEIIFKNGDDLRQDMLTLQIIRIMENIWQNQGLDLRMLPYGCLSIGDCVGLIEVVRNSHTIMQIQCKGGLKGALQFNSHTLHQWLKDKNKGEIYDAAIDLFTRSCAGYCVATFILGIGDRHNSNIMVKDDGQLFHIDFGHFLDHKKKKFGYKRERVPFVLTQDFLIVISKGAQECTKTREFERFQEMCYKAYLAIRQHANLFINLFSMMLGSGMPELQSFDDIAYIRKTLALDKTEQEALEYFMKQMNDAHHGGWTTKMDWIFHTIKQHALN
T2 sequence (P27986 whole entry partner): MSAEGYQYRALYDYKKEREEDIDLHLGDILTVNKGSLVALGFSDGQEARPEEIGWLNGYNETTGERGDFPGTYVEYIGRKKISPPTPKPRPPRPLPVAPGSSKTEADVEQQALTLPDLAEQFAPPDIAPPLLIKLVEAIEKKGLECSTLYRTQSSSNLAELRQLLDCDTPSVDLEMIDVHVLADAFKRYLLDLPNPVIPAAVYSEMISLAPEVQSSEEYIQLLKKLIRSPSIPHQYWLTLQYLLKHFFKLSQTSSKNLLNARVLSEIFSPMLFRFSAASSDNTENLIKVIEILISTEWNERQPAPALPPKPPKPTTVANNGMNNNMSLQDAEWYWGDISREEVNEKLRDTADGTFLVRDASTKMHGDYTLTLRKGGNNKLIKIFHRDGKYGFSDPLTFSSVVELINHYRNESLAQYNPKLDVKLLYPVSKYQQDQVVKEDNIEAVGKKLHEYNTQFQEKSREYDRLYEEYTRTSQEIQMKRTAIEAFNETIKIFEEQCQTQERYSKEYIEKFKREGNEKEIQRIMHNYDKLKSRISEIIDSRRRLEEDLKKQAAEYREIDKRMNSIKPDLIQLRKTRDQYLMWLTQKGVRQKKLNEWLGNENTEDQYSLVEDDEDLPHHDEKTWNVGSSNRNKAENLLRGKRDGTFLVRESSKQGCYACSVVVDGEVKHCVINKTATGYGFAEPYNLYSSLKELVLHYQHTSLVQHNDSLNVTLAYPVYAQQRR
Description: as §1, §2, §3
1) Human PI3K alpha enzyme assay method
as §4, §5

T1 sequence (P42338 whole entry): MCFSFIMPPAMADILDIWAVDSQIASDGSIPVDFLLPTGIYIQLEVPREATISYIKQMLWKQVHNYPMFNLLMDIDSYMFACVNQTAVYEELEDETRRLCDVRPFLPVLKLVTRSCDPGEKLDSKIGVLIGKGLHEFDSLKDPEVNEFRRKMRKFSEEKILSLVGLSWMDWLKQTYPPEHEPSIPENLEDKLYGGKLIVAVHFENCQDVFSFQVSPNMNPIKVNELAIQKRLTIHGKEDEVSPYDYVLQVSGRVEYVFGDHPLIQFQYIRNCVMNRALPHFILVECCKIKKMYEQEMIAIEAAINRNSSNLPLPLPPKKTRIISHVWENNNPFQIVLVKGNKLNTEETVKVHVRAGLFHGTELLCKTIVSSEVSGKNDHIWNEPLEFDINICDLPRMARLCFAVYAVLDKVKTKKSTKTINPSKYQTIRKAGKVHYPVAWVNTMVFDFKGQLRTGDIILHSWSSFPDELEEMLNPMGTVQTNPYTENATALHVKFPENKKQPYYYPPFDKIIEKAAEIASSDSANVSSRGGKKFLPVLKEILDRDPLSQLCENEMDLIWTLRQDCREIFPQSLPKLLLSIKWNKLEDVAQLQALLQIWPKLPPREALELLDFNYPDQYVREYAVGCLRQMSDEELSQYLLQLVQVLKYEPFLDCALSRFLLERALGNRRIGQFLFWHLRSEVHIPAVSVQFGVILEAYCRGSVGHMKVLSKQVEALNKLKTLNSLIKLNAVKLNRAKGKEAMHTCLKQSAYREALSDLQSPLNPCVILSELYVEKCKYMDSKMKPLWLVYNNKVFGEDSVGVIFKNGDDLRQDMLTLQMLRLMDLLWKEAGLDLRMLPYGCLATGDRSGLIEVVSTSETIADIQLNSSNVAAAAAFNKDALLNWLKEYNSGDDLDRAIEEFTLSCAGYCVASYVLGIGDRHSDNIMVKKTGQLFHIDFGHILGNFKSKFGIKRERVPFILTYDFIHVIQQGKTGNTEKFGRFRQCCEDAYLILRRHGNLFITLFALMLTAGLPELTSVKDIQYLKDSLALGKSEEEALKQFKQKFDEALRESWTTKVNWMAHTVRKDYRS
T1 sequence (P27986 whole entry partner): as the sequence (P27986 whole entry partner) above

SMILES	IC50 [1] [µM]	IC50 [2] [µM]
O[C@@H](c1ccc(Cl)cc1)c1cc(-c2ccnc(Cl)c2)sc1-c1nnc[nH]1 (single isomer, unassigned) [Compound 40]	0.1 to 1	0.1 to 1
Cc1cc(-c2cc([C@@H](O)c3ccc(Cl)cc3)c(-c3nnc[nH]3)s2)ccn1 (single isomer, unassigned) [Compound 69]	0.1 to 1	> 1
CC(=O)Nc1cc(-c2nc(Cc3ccccc3)c(-c3ncc[nH]3)s2)ccn1 [Compound 2, N-{4-[4-benzyl-5-(1H-imidazol-2-yl)-1,3-thiazol-2-yl]pyridin-2-yl}acetamide]	> 1	> 1
N#Cc1cc(-c2cc([C@H](O)c3ccc(Cl)cc3)c(-c3nnc[nH]3)s2)ccn1 [Compound 3]	< 0.1	> 1
COC(c1ccc(Cl)cc1)c1cc(-c2ccncc2)sc1-c1nnc[nH]1 (centres unmarked) [Compound 6, 4-[4-[(4-chlorophenyl)(methoxy)methyl]-5-(4H-1,2,4-triazol-3-yl)-2-thienyl]pyridine]	0.1 to 1	> 1
OCc1cc(-c2cc(C(O)c3ccc(Cl)cc3)c(-c3nnc[nH]3)s2)ccn1 (centres unmarked) [Compound 8]	0.1 to 1	> 1
CN(C)C(c1ccc(Cl)cc1)c1cc(-c2ccncc2)sc1-c1nnc[nH]1 (centres unmarked) [Compound 9, 1-(4-chlorophenyl)-N,N-dimethyl-1-[5-pyridin-4-yl-2-(4H-1,2,4-triazol-3-yl)-3-thienyl]methanamine]	< 0.1	> 1
OC(c1ccc(Cl)cc1)c1cc(-c2ccnc3[nH]ccc23)sc1-c1nnc[nH]1 (centres unmarked) [Compound 10]	0.1 to 1	0.1 to 1
Cc1cc(-c2cc(C(O)c3ccc(Cl)cc3)c(-c3nnc[nH]3)s2)ccn1 (centres unmarked) [Compound 11]	< 0.1	> 1
N#Cc1c(-c2ccnc(N)c2)sc(-c2nnc[nH]2)c1Cc1ccc(Cl)cc1 [Compound 12, 2-(2-aminopyridin-4-yl)-4-(4-chlorobenzyl)-5-(4H-1,2,4-triazol-3-yl)thiophene-3-carbonitrile]	0.1 to 1	> 1
OC(c1ccc(Cl)cc1)c1cc(-c2ccnc3ccsc23)sc1-c1nnc[nH]1 (centres unmarked) [Compound 13]	< 0.1	< 0.1
OC(c1ccc(Cl)cc1)c1cc(-c2ccnc(Cl)c2)sc1-c1nnc[nH]1 (centres unmarked) [Compound 14]	< 0.1	0.1 to 1
OC(c1ccc(Cl)cc1)c1cc(-c2ccncc2F)sc1-c1nnc[nH]1 (centres unmarked) [Compound 16]	< 0.1	> 1
COc1cc(-c2cc(C(O)c3ccc(Cl)cc3)c(-c3nnc[nH]3)s2)ccn1 (centres unmarked) [Compound 17]	0.1 to 1	> 1
OC(c1ccc(Cl)cc1)c1cc(-c2ccnc(F)c2)sc1-c1nnc[nH]1 (centres unmarked) [Compound 21, (4-chlorophenyl)[5-(2-fluoropyridin-4-yl)-2-(4H-1,2,4-triazol-3-yl)-3-thienyl]methanol]	< 0.1	> 1
Nc1nccc(-c2cc(C(O)c3ccc(Cl)cc3)c(-c3nnc[nH]3)s2)n1 (centres unmarked) [Compound 23]	0.1 to 1	> 1
OC(c1ccc(Cl)cc1)c1cc(-c2ccncc2Cl)sc1-c1nc[nH]n1 (centres unmarked) [Compound 25]	0.1 to 1	> 1
O[C@@H](c1ccc(Cl)cc1)c1cc(-c2ccnc(F)c2)sc1-c1nnc[nH]1 [Compound 26]	0.1 to 1	> 1
CC(=O)Nc1cc(-c2nc(NC(=O)c3ccccc3)c(-c3ncc[nH]3)s2)ccn1 [Compound 29, N-(2-(2-acetamidopyridin-4-yl)-5-(1H-imidazol-2-yl)thiazol-4-yl)benzamide]	> 1	< 0.1
O[C@H](c1ccc(Cl)cc1)c1cc(-c2ccnc(Cl)c2)sc1-c1nnc[nH]1 [Compound 30]	< 0.1	0.1 to 1
CC(C)NC(c1ccc(Cl)cc1)c1cc(-c2ccncc2)sc1-c1nnc[nH]1 (centres unmarked) [Compound 33]	0.1 to 1	> 1
Cc1noc(C)c1-c1cc(C(O)c2ccc(Cl)cc2)c(-c2nnc[nH]2)s1 (centres unmarked) [Compound 34]	0.1 to 1	> 1

Other lines, results leading:

IC50 [1] [µM]	IC50 [2] [µM]	SMILES
< 0.1	> 1	O[C@H](c1ccc(Cl)cc1)c1nc(-c2ccncc2)sc1-c1nnc[nH]1 (single isomer, unassigned) [Compound 19, (4-chlorophenyl)[2-pyridin-4-yl-5-(1H-1,2,4-triazol-3-yl)-1,3-thiazol-4-yl]methanol]
0.1 to 1	> 1	O[C@@H](c1ccc(Cl)cc1)c1nc(-c2ccncc2)sc1-c1nnc[nH]1 (single isomer, unassigned) [Compound 70, (4-chlorophenyl)[2-pyridin-4-yl-5-(1H-1,2,4-triazol-3-yl)-1,3-thiazol-4-yl]methanol]
0.1 to 1	0.1 to 1	Cc1nn2ccc(CN)cc2c1-c1nc(Cc2ccc(Cl)cc2)c(-c2nnc[nH]2)s1 [Compound 1, 1-{3-[4-(4-chlorobenzyl)-5-(4H-1,2,4-triazol-3-yl)-1,3-thiazol-2-yl]-2-methylpyrazolo[1,5-a]pyridin-5-yl}methanamine]
0.1 to 1	0.1 to 1	Cc1nn2ccccc2c1-c1nc(Cc2ccc(Cl)cc2)c(-c2nnc[nH]2)s1 [Compound 4, 3-[4-(4-chlorobenzyl)-5-(4H-1,2,4-triazol-3-yl)-1,3-thiazol-2-yl]-2-methylpyrazolo[1,5-a]pyridine]
< 0.1	> 1	Clc1ccc(Cc2cc(-c3ccncc3)sc2-c2nnc[nH]2)cc1 [Compound 5, 4-[4-(4-chlorobenzyl)-5-(4H-1,2,4-triazol-3-yl)-2-thienyl]pyridine]
< 0.1	> 1	Clc1ccc(Cc2nc(-c3ccncc3)sc2-c2nnc[nH]2)cc1Cl [Compound 7]
0.1 to 1	> 1	Clc1ccc(Cc2nc(-c3ccncc3)sc2-c2ncc[nH]2)cc1 [Compound 15, 4-(4-chlorobenzyl)-5-(1H-imidazol-2-yl)-2-(pyridin-4-yl)thiazole]
> 1	> 1	Cc1cc(-c2nc(Cc3ccc(Cl)cc3)c(-c3nc[nH]n3)s2)ccn1 [Compound 18, 4-(4-Chlorobenzyl)-2-(2-methylpyridin-4-yl)-5-(4H-1,2,4-triazol-3-yl)thiazole]
< 0.1	0.1 to 1	COc1ccc(CNCc2ccn3nc(C)c(-c4nc(Cc5ccc(Cl)cc5)c(-c5nnc[nH]5)s4)c3c2)c(OC)c1 [Compound 20]
> 1	> 1	Clc1ccc(Cc2nc(-c3ccncc3)sc2-c2ccc[nH]2)cc1 [Compound 22, 4-(4-chlorobenzyl)-2-(pyridin-4-yl)-5-(1H-pyrrol-2-yl)thiazole]
> 1	0.1 to 1	CC(=O)Nc1cc(-c2nc(Cc3ccc(C)cc3)c(-c3ncc[nH]3)s2)ccn1 [Compound 24]
0.1 to 1	> 1	Nc1cc(-c2nc(Cc3ccc(Cl)cc3)c(-c3ncn[nH]3)s2)ccn1 [Compound 27]
0.1 to 1	0.1 to 1	OC(c1ccc(Cl)cc1)c1cc(-c2ccnc(-n3ccnc3)c2)sc1-c1nnc[nH]1 (centres unmarked) [Compound 28]
< 0.1	0.1 to 1	Cc1nn2ccc(CN(CCN)Cc3ccncc3)cc2c1-c1nc(Cc2ccc(Cl)cc2)c(-c2nnc[nH]2)s1 [Compound 31]
0.1 to 1	0.1 to 1	Cc1nn2ccc(CNCc3ccccc3)cc2c1-c1nc(Cc2ccc(Cl)cc2)c(-c2nnc[nH]2)s1 [Compound 32]
